# Molecular target: T1, mGlyT-1b (Mus musculus, UniProt P28571)
# T1 sequence (P28571 1-651 isoform P28571-2): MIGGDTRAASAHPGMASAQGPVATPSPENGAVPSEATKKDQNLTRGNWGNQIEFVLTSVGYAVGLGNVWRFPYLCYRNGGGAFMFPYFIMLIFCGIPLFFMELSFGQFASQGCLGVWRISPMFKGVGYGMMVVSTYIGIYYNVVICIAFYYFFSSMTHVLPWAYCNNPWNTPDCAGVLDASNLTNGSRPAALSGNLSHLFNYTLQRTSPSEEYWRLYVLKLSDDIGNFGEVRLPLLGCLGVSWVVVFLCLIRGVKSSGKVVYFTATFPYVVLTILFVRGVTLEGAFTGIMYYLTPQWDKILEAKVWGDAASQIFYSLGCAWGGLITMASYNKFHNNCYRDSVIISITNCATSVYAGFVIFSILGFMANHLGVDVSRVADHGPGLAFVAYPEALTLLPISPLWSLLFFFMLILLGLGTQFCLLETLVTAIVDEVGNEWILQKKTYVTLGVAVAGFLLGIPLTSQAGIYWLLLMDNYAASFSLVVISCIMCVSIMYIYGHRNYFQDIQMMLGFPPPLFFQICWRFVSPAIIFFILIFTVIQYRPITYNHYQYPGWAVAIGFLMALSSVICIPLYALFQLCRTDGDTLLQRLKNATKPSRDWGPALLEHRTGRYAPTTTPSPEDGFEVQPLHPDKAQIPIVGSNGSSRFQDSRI
# Test: Glycine uptake inhibition assay (mGlyT-1b)
# Type: cell-based
# Details: [3H]-glycine uptake in Flp-in-CHO cells transfected with mGlyT-1b cDNA; values of some enantiomers
# Description: DMEM complete medium: Nutrient mixture F-12 (Gibco Life-technologies), fetal bovine serum (FBS) 5%, (Gibco life technologies), Penicillin/Streptomycin1% (Gibco life technologies), Hygromycin 0.6 mg/ml (Gibco life technologies), Glutamine 1 mM Gibco life technologies).
# Uptake buffer (UB): 150 mM NaCl, 10 mM Hepes-Tris, pH 7.4, 1 mM CaCl2, 2.5 mM KCl, 2.5 mM MgSO4, 10 mM (+) D-glucose.
# Flp-in™-CHO (Invitrogen Cat n° R758–07) cells stably transfected with mGlyT1b cDNA.
# Glycine Uptake Inhibition Assay (mGlyT-1b)
# On day 1 mammalian cells, (Flp-in™-CHO), transfected with mGlyT-1b cDNA, were plated at the density of 40,000 cells/well in complete F-12 medium, without hygromycin in. 96-well culture plates. On day 2, the medium was aspirated and the cells were washed twice with uptake buffer (UB). The cells were then incubated for 20 min at 22° C. with either (i) no potential competitor, (ii) 10 mM non-radioactive glycine, (iii) a concentration of a potential inhibitor. […] A solution was then immediately added containing [^3H]-glycine 60 nM (11–16 Ci/mmol) and 25 μM non-radioactive glycine. The plates were incubated with gentle shaking and the reaction was stopped by aspiration of the mixture and washing (three times) with ice-cold UB. The cells were lysed with scintillation liquid, shaken 3 hours and the radioactivity in the cells was counted using a scintillation counter.
row,SMILES,IC50 [nM]
1,"O=C1NCC(c2ccccc2)C12CCN([C@@H]1CCCC[C@@H]1c1ccccc1)CC2 (mixture of isomers) [Example 1, cis-rac-4-Phenyl-8-(2-phenyl-cyclohexyl)-2,8-diaza-spiro[4.5]decan-1-one]",61
2,"Cc1ccc([C@H]2CCCC[C@H]2N2CCC3(CC2)C(=O)NCC3c2ccccc2)cc1 (mixture of isomers) [Example 2, Cis-rac-4-Phenyl-8-(2-p-tolyl-cyclohexyl)-2,8-diaza-spiro[4.5]decan-1-one]",105
3,"O=C1NCC(c2ccccc2)C12CCN([C@@H]1CCCC[C@@H]1c1ccc(F)cc1)CC2 (mixture of isomers) [Example 6, cis-rac-8-[2-(4-Fluoro-phenyl)-cyclohexyl]-4-phenyl-2,8-diaza-spiro[4.5]decan-1-one]",48
4,"O=C1NCC(c2ccc(F)cc2)C12CCN([C@@H]1CCCC[C@@H]1c1ccc(C(F)(F)F)cc1)CC2 (mixture of isomers) [Example 10, cis-rac-4-(4-Fluoro-phenyl)-8-[2-(4-trifluoromethyl-phenyl)-cyclohexyl]-2,8-diaza-spiro[4.5]decan-1-one]",91
5,"O=C1NCC(c2ccc(F)cc2)C12CCN(C1COCCC1(O)c1ccccc1)CC2 (stereo not drawn) [Example 29, 4-(4-Fluoro-phenyl)-8-trans-(4-hydroxy-4-phenyl-tetrahydro-pyran-3-yl)-2,8-diaza-spiro[4.5]decan-1-one]",91

# Now from value to compound:
row,IC50 [nM],SMILES
1,70,"O=C1NCC(c2ccccc2)C12CCN(C1CCCCC1(O)c1ccc(F)cc1)CC2 (centres unmarked) [Example 11, 8-[2-(4-Fluoro-phenyl)-2-hydroxy-cyclohexyl]-4-phenyl-2,8-diaza-spiro[4.5]decan-1-one]"
2,69,"O=C1NCC(c2ccc(F)cc2)C12CCN(C1CCCCC1(O)c1ccccc1F)CC2 (centres unmarked) [Example 16, 4-(4-Fluoro-phenyl)-8-[2-(2-fluoro-phenyl)-2-hydroxy-cyclohexyl]-2,8-diaza-spiro[4.5]decan-1-one]"
3,73,"O=C1NCC(c2ccc(F)cc2)C12CCN(C1CCCCC1(O)c1cccc(Cl)c1)CC2 (centres unmarked) [Example 17, 8-[2-(3-Chloro-phenyl)-2-hydroxy-cyclohexyl]-4-(4-fluoro-phenyl)-2,8-diaza-spiro[4.5]decan-1-one]"

# Reference: patent US7173133B2, “Diaza-spiropiperidine derivatives” (Hoffmann-La Roche Inc., priority 2004, dated 2007)
